The test system of one assay is MAPK phosphorylation. Kind of assay: MAPK cell-based phosphorylation assay (ELISA or Western), PANC-1. The conditions noted are these: Homo sapiens. Here is the method:
Cell lines: Tumor-derived pancreatic cancer cell line PANC-1 was purchased from ATCC and were and grown in DMEM-High Glucose supplemented with penicillin (100 U/mL), streptomycin (100 μg/mL), and 10% heat-inactivated FBS at 37° C. in a humidified incubator with 5% CO2.
Method: Cells were plated at 7500 cells/well density in a 96-well plate, allowed 3 hours to adhere to the plate, then starved in DMEM plus 0.5% FBS overnight. The small molecules to be tested were added to the cells in the final concentration of 10 μM in the presence of 0.3% DMSO for 6 hours incubation at 37° C. For IC50 value determination, serial dilutions of compounds were added to cells under the same conditions. Next, cells were stimulated with 1.5 ng/mL EGF for 15 minutes followed by cell fixation with 4% formaldehyde in PBS at room temperature for 20 minutes. Cell-direct ELISA determined phosphorylation level of MAPK.
Cell-direct ELISA: For each well, cells were permeabilized with 0.1% PBS-Triton X-100, quenched with 0.06% H2O2 in 0.1% PBS-Triton X-100, and probed with anti-phospho-MAPK antibodies (R&D Systems) followed by HRP-conjugated secondary antibody (Jackson Immunoresearch, West Grove, PA). Next, a 50 μM solution of the fluorescent substrate AmpliFlu Red (Sigma) was added and incubated at RT for 20 minutes. At the end of the incubation time, phosphorylation level of MAPK was determined by measuring fluorescence at 595 nm using SpectraMax M3 plate reader (Molecular Devices).
Cell lines: Human NSCLC cells NCI-H1975 and NCI-H1299, and tumor-derived pancreatic cancer cell lines Panc-1, MIA-PaCa-2, and BxPC3, were all purchased from American Type Culture Collection and grown in complete RPMI medium (BxPC3, NCI-H1975 and NCI-H1299) or DMEM-High Glucose (Panc1 and MIA-PaCa-2), supplemented with penicillin (100 U/mL), streptomycin (100 μg/mL), and 10% heat-inactivated FBS at 37° C. in a humidified incubator with 5% CO2.
(§1) Method: Cells were plated at 350000 cells/well density in a 12-well plate, allowed 3 hours to adhere to the plate, then starved in the appropriate medium in the presence of 0.5% FBS overnight. The small molecules to be tested were added to the cells in the final concentration of 10 μM in the presence of 0.3% DMSO for 6 hours incubation at 37° C. For IC50 value determination, serial dilutions of compounds were added to cells under the same conditions. Next, cells were stimulated with 1.5 ng/ml EGF for 15 minutes then cells were lysed with lysis buffer containing 1% Triton X-100, EDTA, and Halt™ Protease & Phosphatase Inhibitor Cocktail (Thermo Scientific). Protein concentration was assessed by BCA protein assay (Thermo Scientific). Phosphorylation level of MAPK was determined by western blot.
(§2) Western blot protocol: Equal amounts of protein (15-50 μg) were separated by SDS-PAGE and transferred to nitrocellulose membranes (Invitrogen by Thermo Fisher Scientific). The membrane was stained with Ponceau S Stain (Boston BioProducts) to verify uniform protein loading. Membranes were blocked with 10% milk and phosphorylation levels of MAPK were assessed by incubating overnight at 4° C. with anti-phospho-p44/42 (Thr202/Tyr204) antibody (Cell Signaling) followed by HRP-conjugated secondary antibody (Jackson Immunoresearch, West Grove, PA). Bands were incubated in Amersham ECL Prime Western Blotting Detection Reagent (GE Healthcare) and visualized using the ChemiDoc MP imaging system (Bio-Rad).
On the technique in general: In an ELISA, binding on a coated surface is turned into a signal by an enzyme label.

The test system of a further assay is AKT phosphorylation. Nature of the assay: Western AKT cell-based phosphorylation assay, PANC-1. Conditions: Homo sapiens. Here is the method:
Human tumor-derived pancreatic cancer cell line Panc-1 was purchased from American Type Culture Collection and grown in complete DMEM-High Glucose supplemented with penicillin (100 U/mL), streptomycin (100 μg/mL), and 10% heat-inactivated FBS at 37° C. in a humidified incubator with 5% CO2.
as §1, with “C.” for “C. For IC50 value determination, serial dilutions of compounds were added to cells under the same conditions.”, “Akt” for “MAPK”
as §2, with “Akt” for “MAPK”, “anti-phospho-Akt (Ser473)” for “anti-phospho-p44/42 (Thr202/Tyr204)”

In assay [1] the test system is MIA PaCa-2 pancreatic cancer cell line. Kind of assay: Cell proliferation assay (DAPI). Type of assay: cell-based. Conditions: Homo sapiens; for inhibition at 10 µM: read-out: % Inhibition of cell proliferation, MIA PaCa-2 % inh. The procedure, abridged:
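NCI-H1975 cells in RPMI; PANC-1 and MIA PaCa-2 in DMEM-high glucose; BxPC3 in RPMI; all with 10% FBS. Compounds at 10 µM final (or serial dilutions for IC50), 0.3% DMSO, 2–4 days at 37 °C. Fixed, DAPI-stained, fluorescence read at 358/461 nm to give proliferation inhibition.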

The mark [2] stands for this setting: 6 hours, EGF stimulation, PANC-1.

Our source for the inhibition and IC50 values is patent publication US20250296938A1, “Compounds that Interact with the Ras Superfamily for the Treatment of Cancers, Inflammatory Diseases, Rasopathies, and Fibrotic Disease” (SHY Therapeutics, LLC, priority 2018, published 2025).

pIC50: −log10 of the molar value. Where two headings read alike, the source gives them in different places. Some results are limits rather than exact numbers.

In the case of `COc1cc(-c2sc3nc(-c4nccn4C)nc(N4CCC(OC)C4)c3c2-c2ccccc2)ccn1` (stereo not shown) [drawing 427], the inhibition at 10 µM in the assay on MAPK phosphorylation (setting [2]) was 51 to 75%; in the assay on AKT phosphorylation (setting [2]) it was 0%.

As to `CCN(CC)C(=O)c1nc(-c2nccn2C)nc(O)c1O` [drawing 463], the inhibition at 10 µM in the assay on MAPK phosphorylation (setting [2]) and in the assay with AKT phosphorylation (setting [2]) was 0% in each case.

In the case of `COCCNc1nc(-c2cn(C)cn2)nc2sc(-c3cc(OC)ccc3Cl)c(-c3ccc(OC)cc3)c12` [drawing 424], the inhibition at 10 µM with MAPK phosphorylation (setting [2]) and in the assay on AKT phosphorylation (setting [2]) was 76 to 100% throughout.

As to `COc1cccc(-c2sc3nc(-c4nccn4C)nc(N4CCC(OC)C4)c3c2-c2ccccc2)c1F` (stereo not shown) [drawing 490], the inhibition at 10 µM in the assay with MAPK phosphorylation (PANC-1 (Table 4C)) and in the assay with AKT phosphorylation (PANC-1 (Table 4C)) was 76 to 100% each time.

With `COCCNC(=O)c1sc2nc(-c3nccn3C)nc(N[C@H]3C[C@@H](OC)C3)c2c1-c1ccccc1` [drawing 521], the inhibition at 10 µM with MAPK phosphorylation (PANC-1 (Table 4C)) and in the assay with AKT phosphorylation (PANC-1 (Table 4C)) was 0% throughout.

In the case of `CO[C@H]1C[C@@H](Nc2nc(-c3nccn3C)nc3sc(-c4cnn(C)c4)c(-c4ccccc4)c23)C1` [drawing 492], the inhibition at 10 µM in the assay with MAPK phosphorylation (PANC-1 (Table 4C)) is 76 to 100%; in the assay with AKT phosphorylation (PANC-1 (Table 4C)) it was 26 to 50%.

Turning to `O=C(NC1CCC1)c1nc(-c2ccccn2)nc(O)c1O` [drawing 461], the inhibition at 10 µM in the assay on MAPK phosphorylation (setting [2]) and in the assay on AKT phosphorylation (setting [2]) was 0% each time.

With `COC(=O)c1nc(-c2nccn2C)nc(O)c1O` [drawing 468], the inhibition at 10 µM in the assay with MAPK phosphorylation (setting [2]) and with AKT phosphorylation (setting [2]) was 0% throughout.

In the case of `CO[C@H]1CC[C@@H](Nc2nc(-c3nccn3C)nc3sc(C(=O)N4CCCC4)c(-c4ccccc4)c23)C1` [drawing 526], the inhibition at 10 µM with MAPK phosphorylation (PANC-1 (Table 4C)) and with AKT phosphorylation (PANC-1 (Table 4C)) was 0% in each case.

Take `COC1CCC(Nc2nc(-c3nccn3C)nc3sc(-c4cccc5[nH]ncc45)c(-c4ccccc4)c23)C1` (stereo not shown) [drawing 488]: the inhibition at 10 µM in the assay with MAPK phosphorylation (PANC-1 (Table 4C)) and in the assay with AKT phosphorylation (PANC-1 (Table 4C)) was 76 to 100% in each case.

On to `Cn1ccnc1-c1nc(O)c(O)c(C(=O)N2CCCC2)n1` [drawing 464], for which the inhibition at 10 µM in the assay with MAPK phosphorylation (setting [2]) and in the assay on AKT phosphorylation (setting [2]) was 0% in each case.

As for `CCn1cc(Nc2nc(-c3ccccn3)nc(O)c2OC)cn1` [drawing 481], the inhibition at 10 µM with MAPK phosphorylation (PANC-1 (Table 4C)) and in the assay with AKT phosphorylation (PANC-1 (Table 4C)) was 0% in each case.

As for `O=C(c1nc(-c2ccccn2)nc(O)c1O)N1CCc2ccccc2C1` [drawing 452], the inhibition at 10 µM in the assay on MAPK phosphorylation (setting [2]) and with AKT phosphorylation (setting [2]) was 0% in each case.

On to `CC(C)CNC(=O)c1nc(-c2ccccn2)nc(O)c1O` [drawing 459], for which the inhibition at 10 µM in the assay on MAPK phosphorylation (setting [2]) and in the assay on AKT phosphorylation (setting [2]) was 0% each time.

In the case of `COCCn1cc(-c2sc3nc(-c4nccn4C)nc(N4CCC(OC)C4)c3c2-c2ccccc2)cn1` (stereo not shown) [drawing 433], the inhibition at 10 µM was 51 to 75% with MAPK phosphorylation (setting [2]) and 0% in the assay on AKT phosphorylation (setting [2]).

With `Cc1cc(Cn2ccnc2-c2nc(O)c3scc(-c4ccccn4)c3n2)on1` [drawing 391], the inhibition at 10 µM in the assay with MAPK phosphorylation (setting [2]) and in the assay with AKT phosphorylation (setting [2]) was 0% in each case.

`CO[C@H]1C[C@@H](Nc2nc(-c3nccn3C)nc3sccc23)C1` [drawing 503]: the values for the inhibition at 10 µM with MAPK phosphorylation (PANC-1 (Table 4C)) and with AKT phosphorylation (PANC-1 (Table 4C)) were 1 to 25% and 0%, respectively.

In the case of `Cn1ccc(-c2sc3nc(-c4nccn4C)nc(NCC4CCOC4)c3c2-c2ccccc2)n1` (stereo not shown) [drawing 405], the inhibition at 10 µM with MAPK phosphorylation (setting [2]) was 1 to 25%; in the assay with AKT phosphorylation (setting [2]) it was 0%.

Consider `COc1c(O)nc(-c2ccccn2)nc1Oc1ccc2ncccc2c1` [drawing 446], for which the inhibition at 10 µM in the assay with MAPK phosphorylation (setting [2]) and with AKT phosphorylation (setting [2]) was 0% each time.

Regarding `Oc1nc(-c2ncc3ccccn23)nc2c(-c3ccccn3)csc12` [drawing 396], the inhibition at 10 µM in the assay on MAPK phosphorylation (setting [2]) and with AKT phosphorylation (setting [2]) was 0% in each case.

As for `COC1CCN(c2nc(-c3nccn3C)nc3sc(-c4ccccc4CO)c(-c4ccccc4)c23)C1` (stereo not shown) [drawing 438], the inhibition at 10 µM in the assay on MAPK phosphorylation (setting [2]) and with AKT phosphorylation (setting [2]) was 0% each time.

As to `CO[C@H]1CC[C@@H](Nc2nc(-c3nccn3C)nc3sc(-c4ccn(C(C)C)n4)c(-c4ccccc4)c23)C1` [drawing 475], the pIC50 (usually −log10 of the IC50, conventionally taken in molar units) in the assay on MAPK phosphorylation (PANC-1) was < 6.00.

On to `COc1cccc(-c2sc3nc(-c4nccn4C)nc(N4CCC(OC)C4)c3c2-c2ccccc2)c1F` (stereo not shown) [drawing 473], for which the pIC50 with MAPK phosphorylation (PANC-1) was < 6.00.

`COc1cccc(Oc2nc(-c3ccccn3)nc(O)c2OC)c1` [drawing 590]: in assay [1] (2-4 days, MIA PaCa-2), the inhibition at 10 µM was 0%.

Take `COc1c(O)nc(-c2ccccn2)nc1Nc1ccccc1` [drawing 615]: in assay [1] (MIA PaCa-2 (Table 5A)), the inhibition at 10 µM fell in the range of 76 to 100% and the pIC50 is < 6.00.

`COCCCN(C)c1nc(-c2nccn2C)nc2sc(-c3ccn(C)n3)c(-c3ccccc3)c12` [drawing 543]: the pIC50 in assay [1] (MIA PaCa-2) is < 6.00. In assay [1] (2-4 days, MIA PaCa-2), the inhibition at 10 µM fell in the range of 76 to 100%.

For the compound `Cn1ccc(-c2sc3nc(-c4nccn4C)nc(NC4CCOCC4)c3c2-c2ccccc2)n1` [drawing 546], the pIC50 in assay [1] (MIA PaCa-2) was < 6.00. Moreover, the inhibition at 10 µM in assay [1] (2-4 days, MIA PaCa-2) fell in the range of 1 to 25%.

In the case of `COc1ccc(-c2c(-c3ccn(C)n3)sc3nc(-c4nccn4C)nc(N4CCC(OC)C4)c23)cc1` (stereo not shown) [drawing 555], the pIC50 in assay [1] (MIA PaCa-2) was < 6.00. Further, the inhibition at 10 µM in assay [1] (2-4 days, MIA PaCa-2) lay within 76 to 100%.

Consider `COc1cccc(-c2sc3nc(-c4nccn4C)nc(NC4CCC(OC)C4)c3c2C)c1F` (stereo not shown) [drawing 628], for which, in assay [1] (MIA PaCa-2 (Table 5A)), the inhibition at 10 µM lay in the range of 76 to 100% and the pIC50 is 6.00 to 6.12.

As for `CO[C@H]1CC[C@@H](Nc2nc(-c3nc(C)cn3C)nc3sc(-c4cccc5[nH]ncc45)c(C)c23)C1` [drawing 632], in assay [1] (MIA PaCa-2 (Table 5A)), the inhibition at 10 µM was in the range of 76 to 100% and the pIC50 is < 6.00.

On to `COCCNc1nc(-c2cn(C)cn2)nc2sc(-c3cccc(OC)c3Cl)c(-c3ccc(OC)cc3)c12` [drawing 565], for which, in assay [1] (2-4 days, MIA PaCa-2), the inhibition at 10 µM lay within 76 to 100%.

Consider `COC1CCN(c2nc(-c3nccn3C)nc3sc(-c4ccccc4CO)c(-c4ccccc4)c23)C1` (stereo not shown) [drawing 580], for which the inhibition at 10 µM in assay [1] (2-4 days, MIA PaCa-2) was 76 to 100%.

Take `COc1c(F)cccc1-c1sc2nc(-c3nccn3C)nc(NC3CCC(OC)C3)c2c1-c1ccccc1` (stereo not shown) [drawing 621]: in assay [1] (MIA PaCa-2 (Table 5A)), the inhibition at 10 µM is 76 to 100% and the pIC50 is 6.00 to 6.12.
